Laboratory results taken from ChEMBL document CHEMBL1136015, “Inhibitors of human histone deacetylase: synthesis and enzyme and cellular activity of straight chain hydroxamates” (J Med Chem, 2002).
Square brackets hold non-standard residues; d marks the D form. Peptide text beside a SMILES is read from it. Aoe = N[C@@H](CCCCCC(=O)[C@@H]1CO1)C(=O)O

System: not listed separately
Test: Concentration required to inhibit the breast MDA-MB-435S cell growth by 50%,P53 status of cell line used was mutant-type.
Type: functional
Conditions: Homo sapiens

SMILES	IC50 [µM]
CN(C)c1ccc(C(=O)NCCCCCCC(=O)NO)cc1	1.3

System: T-24
Test: Concentration required to inhibit the bladder T24 cell growth by 50%,P53 status of cell line used was mutant.
Conditions: Homo sapiens

SMILES	IC50 [µM]
CN(C)c1ccc(C(=O)NCCCCCCC(=O)NO)cc1	3.8

System: NCI-H1299
Test: Concentration required to inhibit the lung H1299 cell growth by 50%,P53 status of cell line used was deleted.
Conditions: Homo sapiens

SMILES	IC50 [µM]
CN(C)c1ccc(C(=O)NCCCCCCC(=O)NO)cc1	3.9

System: HCT-116
Test: Concentration required to inhibit the colon HCT116 cell growth by 50%,P53 status of cell line used was wild-type.
Type: functional, cell-based
Conditions: Homo sapiens

SMILES	IC50 [µM]
CN(C)c1ccc(C(=O)NCCCCCCC(=O)NO)cc1	0.2

System: HCT-116
Test: Concentration required to inhibit the HCT116 cell growth by 50%.
Type: functional, cell-based
Conditions: Homo sapiens

SMILES	IC50 [µM]
CN(C)c1ccc(C(=O)NCCCCCCC(=O)NO)cc1	0.21
O=C(O)CCCCCCC(=O)c1ccccc1	1.72
O=C(CCCCCCC(=O)Nc1ccccn1)NO	2
O=C(CCCCCCC(=O)Nc1ccncc1)NO	5.4
O=C(CCCCCCC(=O)Nc1cccnc1)NO [PYROXAMIDE]	6.5
O=C1N[C@@H](Cc2ccccc2)C(=O)N2CCC[C@@H]2C(=O)N[C@@H](CCCCCC(=O)[C@@H]2CO2)C(=O)N[C@H]1Cc1ccccc1 [TRAPOXIN B] (cyclo(FF[dP][Aoe]))	0.002

Now from value to compound:

IC50 [µM]	SMILES
0.5	CN(C)c1ccc(C(=O)NCCCCCCCC(=O)NO)cc1
> 10	COc1ccc(NC(=O)CCCCCCC(=O)NO)cc1
1.04	O=C(CCCCCCNC(=O)c1ccccc1)NO
0.013	CC(/C=C/C(=O)NO)=C\[C@@H](C)C(=O)c1ccc(N(C)C)cc1 [TRICHOSTATIN]

Target: Histone deacetylase
Test: Concentration required to inhibit human Histone deacetylase (HDAC) enzyme by 50%
Type: protein assay
Conditions: not given

SMILES	IC50 [µM]
CN(C)c1ccc(C(=O)NCCCCCCC(=O)NO)cc1	0.046
O=C(CCCCCN1C(=O)c2ccccc2C1=O)NO	0.515
O=C(CCCCCNC(=O)c1ccc(OCc2ccccc2)cc1)NO	0.22
O=C(O)CCCCCCC(=O)c1ccccc1	0.27
O=C(CCCCCCC(=O)Nc1ccncc1)NO	0.306

Other lines, results leading:

IC50 [µM]	SMILES
1.556	O=C(CCCCCNC(=O)c1ccc([N+](=O)[O-])cc1)NO
> 10	CN(C)c1ccc(C(=O)NCCCCC(=O)NO)cc1
0.145	CN(C)c1ccc(C(=O)NCCCCCCCC(=O)NO)cc1
0.265	O=C(CCCCCNC(=O)c1ccc(-c2ccccc2)cc1)NO
0.369	O=C(CCCCCNC(=O)c1ccc(Cl)cc1)NO
> 10	CONC(=O)CCCCCNC(=O)c1ccccc1
> 10	NNC(=O)CCCCCNC(=O)c1ccccc1
0.279	COc1ccc(NC(=O)CCCCCCC(=O)NO)cc1
0.443	CN(CCCCCC(=O)NO)C(=O)c1ccc(N(C)C)cc1
0.568	O=C(CCCCCCNC(=O)c1ccccc1)NO

System: A-431
Test: Concentration required to inhibit the epidermoid A431 cell growth by 50%, P53 status of cell line used was mutant.
Conditions: Homo sapiens

SMILES	IC50 [µM]
CN(C)c1ccc(C(=O)NCCCCCCC(=O)NO)cc1	2.3

System: LS174T
Test: Concentration required to inhibit the colon LS 174T cell growth by 50%,P53 status of cell line used was […].
Type: functional, cell-based
Conditions: Homo sapiens

SMILES	IC50 [µM]
CN(C)c1ccc(C(=O)NCCCCCCC(=O)NO)cc1	1.5

System: SW-620
Test: Concentration required to inhibit the colon SW 620 cell growth by 50%,P53 status of cell line used was mutant-type.
Type: functional, cell-based
Conditions: Homo sapiens

SMILES	IC50 [µM]
CN(C)c1ccc(C(=O)NCCCCCCC(=O)NO)cc1	0.7

Target: Histone deacetylase
Test: Induction of p21 using Histone deacetylase inhibitors
Type: protein assay, Homo sapiens
Conditions: not given

SMILES	AC50 [µM]
CN(C)c1ccc(C(=O)NCCCCCCC(=O)NO)cc1	2.1
O=C(CCCCCN1C(=O)c2ccccc2C1=O)NO	7.5
O=C(CCCCCNC(=O)c1ccc(OCc2ccccc2)cc1)NO	> 10
O=C(O)CCCCCCC(=O)c1ccccc1	4.1
O=C(CCCCCCC(=O)Nc1ccncc1)NO	8.9

Continued, values first:

AC50 [µM]	SMILES
> 10	O=C(CCCCCNC(=O)c1ccc([N+](=O)[O-])cc1)NO
> 10	CN(C)c1ccc(C(=O)NCCCCC(=O)NO)cc1
1.6	CN(C)c1ccc(C(=O)NCCCCCCCC(=O)NO)cc1
> 10	O=C(CCCCCNC(=O)c1ccc(-c2ccccc2)cc1)NO
> 10	O=C(CCCCCNC(=O)c1ccc(Cl)cc1)NO
> 10	CONC(=O)CCCCCNC(=O)c1ccccc1
> 10	NNC(=O)CCCCCNC(=O)c1ccccc1
2.4	COc1ccc(NC(=O)CCCCCCC(=O)NO)cc1
> 10	CN(CCCCCC(=O)NO)C(=O)c1ccc(N(C)C)cc1
5.7	O=C(CCCCCCNC(=O)c1ccccc1)NO

Target: Histone deacetylase
Test: Concentration required to inhibit the partially purified HDAC enzyme by 50% obtained from H1299 cell lysate
Type: functional, cell-based, Homo sapiens
Conditions: not given

SMILES	IC50 [µM]
CN(C)c1ccc(C(=O)NCCCCCCC(=O)NO)cc1	1.62
O=C(O)CCCCCCC(=O)c1ccccc1	> 10
O=C(CCCCCCC(=O)Nc1ccncc1)NO	> 10

Results, then the compound that gave them:

IC50 [µM]	SMILES
2.18	CN(C)c1ccc(C(=O)NCCCCCCCC(=O)NO)cc1
> 10	COc1ccc(NC(=O)CCCCCCC(=O)NO)cc1
> 10	O=C(CCCCCCNC(=O)c1ccccc1)NO

System: A549
Test: Concentration required to inhibit the lung A549 cell growth by 50%,P53 status of cell line used was wild-type.
Type: functional, cell-based
Conditions: Homo sapiens

SMILES	IC50 [µM]
CN(C)c1ccc(C(=O)NCCCCCCC(=O)NO)cc1	0.8
